Literature values as cited in US10112962B2, “Boron-based prodrug strategy for increased bioavailability and lower-dosage requirements for drug molecules containing at least one phenol (or aromatic hydroxyl) group” (XAVIER UNIVERSITY OF LOUISIANA, priority 2014, dated 2018).

What was measured:
[1] = literature statement
[2] = literature statement; remark: listed apart in the source

water solubility [1] | oral bioavailability [2] | Compound
poor water solubility | low oral bioavailability | O=C(Nc1ccc([N+](=O)[O-])cc1Cl)c1cc(Cl)ccc1O [niclosamide, Niclosamide]
– | poor oral bioavailability | C[C@]12CC[C@@H]3c4ccc(O)cc4C[C@@H](CCCCCCCCC[S+]([O-])CCCC(F)(F)C(F)(F)F)[C@H]3[C@@H]1CC[C@@H]2O (stereo partly shown) [Fulvestrant]
– | poor bioavailability | O=C(c1ccc(OCCN2CCCCC2)cc1)c1c(-c2ccc(O)cc2)sc2cc(O)ccc12 [raloxifen, Raloxifene]
